According to patent US9765115B2, “Inhibitors of metastasis, methods of generating such inhibitors and their therapeutic applications” (Board of Supervisors of Louisiana State University acting …, priority 2011, dated 2017):
Entries after “also recorded” stand apart in the source; their conditions may differ.

What was measured:
Type in all cases: cell-based
PC-3CTRwt cells = experiment: Paracellular permeability (PCP), TRITC-dextran diffusion
Experimental: For PCP measurements, cells were grown to confluence on Transwell filters. Tetra methyl rhodamine-dextran (1 mg/ml, ˜4 kDa, Sigma) was added to the upper chamber. Fluorescence of the lower chamber medium was measured in Modulus Microplate Reader (Turner Biosystems) at various time intervals.
TJs form a barrier that regulates the movement of ions, solutes and growth factors between cells. To detect whether CT affects the barrier, the diffusion of fluorophore-conjugated dextran was measured across polarized PC cell line monolayers, a procedure called paracellular permeability (PCP). FIG. 2B depicts CTR-C PDZ-binding motif mutation and tight junction (TJ) disruption as measured using PCP. Polarized PC-3V, PC-3-CTRwt and PC-3CTRΔESS cells were treated with or without 50 nM CT, and PCP determined by diffusion of ˜4 kDa TRITC-conjugated dextran from the upper to the lower chamber in one hour. The results are expressed as μg/ml/hour of TRITC-Dextran diffused ±SEM (n=6; *p<0.05 (−CT v +CT, One way ANOVA and Newman-Keul's test)). […]
The effect of CT on TJ functionality was tested by monitoring TER of PC-3CTRwt monolayers. […] TER was measured with EVOM volt-ohm meter. The results are expressed as TER ±SEM (Ωcm^2±SEM; n=6). […] PCP was determined by diffusion of ˜4 kDa TRITC-conjugated dextran from the upper to the lower chamber in one hour. […]

[1] = tested on: LNCaP, DU-145 and PC-3M cells; experiment: Matrigel in vitro invasion assay; conditions: 50 nM CT, 48 h
Experimental: Invasion experiments were conducted in Matrigel™ invasion chambers as previously described (Sabbisetti et al., 2005).
Whether CT produces similar effects in LNCaP, PC-3M and DU-145 cell lines, which endogenously express CTR, was examined as shown in FIG. 1A. FIGS. 9A-9B depict the effect of CT on tight junction (TJ) disruption as measured using TER and PCP in the three prostate cancer cell lines—LNCaP, PC-3M, and DU-145. Cells were serum-starved for 4 hours, then treated with and without 50 nM CT, before measuring TER as described above. In FIG. 9B, cells were treated with and without 50 nM CT, and PCP determined by diffusion of ˜4 kDa TRITC-conjugated dextran from the upper to the lower chamber in one hour. The results are expressed as μg/ml/hour of TRITC-Dextran diffused ±SEM (n=6; *p<0.05 (−CT v +CT, One way ANOVA and Newman-Keul's test)). FIG. 9C depicts effects of CT on cell invasion in the same three cell lines—PC-3M, LNCaP, and DU145. Cells were added to upper insert of invasion chambers with or without 50 nM CT, and cells that passed through the Matrigel™ barrier were counted after 48 h. The results are expressed as mean number of invaded cells per 400× field ±SEM (n=6; *p<0.05).

ZO-1 and claudin 3 = experiment: In vivo 32P phosphorylation and phosphoserine/phosphothreonine immunoblotting
Experimental: Postconfluent cells cultured were serum-starved overnight, and then labeled with [^32P]orthophosphate (NEN/DuPont Chemicals) in phosphate-free serum-free Dulbecco's modified Eagle's medium for 3 hours at 37° C. The cells were then treated with calcitonin (CT) (50 nM for 10 min, 37° C.). When used, myristoylated PKA-inhibitory peptide (mPKI; 100 nM) was added 15 min prior to the addition of CT (50 nM). The cells were then washed with ice-cold phosphate-buffered saline, and lysed in 700 μl lysate buffer. The lysate was cleared by centrifugation for 10 min at 10,000×g. For immunoprecipitation, the supernatant was incubated overnight with primary antibody, and Protein A-Sepharose (40 μl, GE Healthcare) was added next morning. Washed immune complexes were fractionated on SDS-PAGE. The gels were either dried and exposed to film or transferred onto polyvinylidene difluoride membranes and immunoblotted as described above.
The IPs were processed for immunoblotting with either anti-phosphoserine or anti-phosphothreonine antibodies followed by secondary antibody and developed with ECL To control for protein loading and transfer, the blots were stripped and reprobed with the immunoprecipitating antibody.
To directly examine the involvement of PKA in CTR action on TJ disassembly, the in vivo incorporation of ^32PO4 in TJ proteins was examined. […] Arrows indicate location of ZO-1 and claudin-3. FIG. 17B depicts the total amount of ^32P-radioactivity of IP bands of ZO-1 and claudin from cells treated with CT (CT) and without treatment (Control, C). […] The results of occludin were inconclusive (data not shown).
Next, the phosphorylated amino acids in these proteins were identified by probing ZO-1 and claudin 3 immunoprecipitates with antisera against phosphoserine, phosphothreonine and phosphotyrosine. […] The blots were probed by antibodies to phosphoserine (Ser), phosphothreonine (Thr), and phosphotyrosine (Tyr). […] There was complete absence of phosphotyrosines in either of these TJ proteins, consistent with the role of PKA in CTR-stimulated phosphorylation of ZO-1 and claudin 3.
As shown above, the interaction of CTR with ZO-1 occurs between CTR-C PDZ-binding motif and PDZ3 domain of ZO-1. […] To examine the role of CTR-C PDZ-binding motif on phosphorylation of TJ proteins, the serine/threonine phosphorylation of ZO-1 and claudin 3 was analyzed in PC-3CTRwt and PC-3CTRΔESS cells. […] The immunoprecipitates were then probed with antibodies to phosphoserine. […] The immunoprecipitates were then probed with antibodies to phosphothreonine. The IPs of ZO-1 and claudin 3 were immunoblotted and probed for phosphoserine and phosphothreonine.

Q: With calcitonin [CT] as the substance, how does the PCP (PC-3CTRwt cells; 50 nM CT) read?
A: increased PCP significantly; also recorded: eighty percent

Q: What about the “PCP at multiple CT doses” value (PC-3CTRwt cells; CT doses of 10 nM or higher) of the same substance?
A: induced an increase

Q: And the invasion [1]?
A: significantly increased

Q: And the “32P incorporation in immunoprecipitated ZO-1 and claudin 3” value (ZO-1 and claudin 3; CT 50 nM)?
A: ten-fold increase

Q: And the “incorporation of 32PO4 in ZO-1 and claudin 3 (autoradiogram)” value (ZO-1 and claudin 3; CT 50 nM, 10 min)?
A: remarkable increase

Q: What about the “serine/threonine phosphorylation of ZO-1 and claudin 3” value (ZO-1 and claudin 3; CT 50 nM, PC-3CTRwt cells) of the same substance?
A: stimulated phosphorylation of serines and threonines in ZO-1 and only threonines in claudin-3; also recorded: detectable increase

Q: What about the “phosphorylation of ZO-1 and claudin 3” value (ZO-1 and claudin 3; CT, PC-3CTRΔESS cells) of the same substance?
A: did not induce phosphorylation
